The values below come from US20240228411A1, “Functionalization of Lightly Branched Olefin Oligomers” (ExxonMobil Chemical Patents Inc., priority 2021, published 2024).

Holding throughout (type): physicochemical
Series [1] in a line: Critical micelle concentration in water, Kruss K100 tensiometer. How it is done:
Critical micelle concentrations in water were measured using an A Kruss Laboratory K100 tensiometer. CMC values were determined using the K100 instrument's fully automated measurement method, as described further in the K100 instrument's operating manual.

The next series is described as follows: Wetting time, skein test. The note with it: average of three measurements; for Wetting time (1 g/L): 1 g/L surfactant; for Wetting time (2 g/L): 2 g/L surfactant. How it is done:
Wetting time was measured by heating an aqueous mixture of the surfactant in an oven for 15-20 minutes at 50-60° C. and homogenizing regularly. 1+/−0.1 g or 2+/−0.1 g of the surfactant was weighed into a 1 L volumetric flask, and distilled water was added by portions of 200-300 mL and agitating regularly. After the resulting foam disappeared, the volume was adjusted to the 1 liter level. Skein yams were removed from their packaging and hung for a period of time before measurement. The surfactant solution was poured into a graduated cylinder (1 L), and foam was removed with a small nitrogen or air flow. The skein was folded one time. A hook was fastened with its anchor at one end of the folded skein, and at the opposite end, the skein was cut through. The cut skein was then compacted. The skein was held with the anchor and the weight above the 1-liter graduated cylinder containing the surfactant solution. A stopwatch was activated just as the skein was released into the surfactant solution. The stopwatch was stopped once the skein started to sink. The average of three measurements using fresh surfactant solution and a new skein each time is reported. Wetting results are specified in Table 5 below.

Series [2] in a line: Solubility in water at 25° C., visual observation. The note with it: 2-3 hours magnetic stirring. As to the method:
Solubility measurements were conducted in water at 25° C. Solubility was determined through visual observation after 2-3 hours of magnetic stirring of surfactant solutions having variable concentrations.

A short description of series [3]: Calcium tolerance (hard water tolerance), surfactant remaining in filtrate by HPLC-ELSD. The following applies: 25° C., 450 ppm surfactant, 420 ppm cations (3:1 Ca2+:Mg2+), overnight. As to the method:
Calcium tolerance was measured at 25° C. using the following procedure. A surfactant solution containing 450 ppm of alcohol sulfate surfactant and 420 ppm cations (3:1 Ca^2+:Mg^2+) was prepared and allowed to stand overnight. Crystals formed during this time. The supernatant liquid was removed and passed through a 0.22 μm filter to provide a filtrate. The filtrate was then analyzed for surfactant residue. Analysis of the surfactant and salt residue was performed using an Agilent 1100 HPLC combined with SEDEX 75 evaporative light scattering detector (ELSD) using the run conditions specified in Table 4 below. Peak height was utilized to analyze surfactant concentration. Some samples were repeated in triplicate. Calcium tolerance results are specified in Table 5 below.

Each structure is given as a SMILES string. Structures can show the parent of a compound that is named as a salt. Bounds are passed on as bounds.

On to `CCCC(C)CCCC(C)CCCOS(=O)(=O)O` (centres unmarked) [Isotridecyl Sulfate-2, C# = 13, 4,8-dimethylundecan-1-sulfate], for which the CMC in series [1] worked out at 0.00129 g/g. Also, in the series “Wetting time, skein test”, the “Wetting time (1 g/L)” value is reported as 6.1 s and the “Wetting time (2 g/L)” value worked out at 2.3 s.
Regarding `CCCCCCCCCCCCCOS(=O)(=O)[O-].[Na+]` [Sodium n-Tridecyl Sulfate], the “Solubility at 25° C.” value in series [2] is recorded as under 0.5% Wt. %. In addition, the “Calcium tolerance (ppm surfactant remaining)” value in series [3] was determined as 11.2 ppm. For the same compound, the CMC in series [1] came out at 0.001 g/g. In “Wetting time, skein test”, the “Wetting time (1 g/L)” value was found to be 6.3 s and the “Wetting time (2 g/L)” value was 3.1 s.
